Laboratory results from patent publication US20170114030A1, “COMPOSITION WITH HIGH CONTENT OF CYCLIC DIPEPTIDE” (SUNTORY HOLDINGS LIMITED, priority 2014, published 2017).

Tested on: plasma active GLP-1
Experiment: In vivo plasma active GLP-1 level-increasing action after oral administration
Parameters: species or system mice
Conditions: 10 mg/kg orally; for Plasma active GLP-1 level (relative value to control group as 100), Average value: male C57/BL6J mice, blood after 30 minutes, 0.5% CMC-Na group = 100; for Significant difference (p < 0.05) vs control group, plasma active GLP-1 level: mice, 30 minutes, Student's t-test
Procedure: In the Test Examples below, data were represented as average value±standard error. In Test Examples 1, 2, and 3, a Student's t-test was used for a statistical test, and in other Test Examples, one-way ANOVA was carried out for dispersion analysis followed by a multiple comparison test by using a Dunnet's test. […] All of these analyses were carried out by using an SPSS for Windows release 17.0 (manufactured by SPSS Inc.).
Among the cyclic dipeptides, cyclic dipeptides for which an in vitro GLP-1 secretion-accelerating action was found and highly lipid-soluble cyclic dipeptides were used in the following experiment. Seven-week-old male C57/BL6J mice were purchased from CLEA Japan, Inc. for use, and they were subjected to an experiment after 1 week of a habituation period. Each animal was grown in an animal room with an air conditioning system (temperature: 23.5±1.0° C., humidity: 55±10 RH %, air ventilation: 12 to 15 times/hour, illumination: from 7:00 to 19:00/day).
After the habituation period, the mice were subjected to 5.5 hours of food deprivation and 2 hours of water deprivation. Thereafter, a cyclic dipeptide dissolved or suspended in a 0.5% CMC-Na aqueous solution in 10 mg/kg was orally administered to each mouse forcibly. After 30 minutes, the blood was collected from the abdominal vena cava under anesthesia, and 1 μL of heparin sodium and 1 μL of 10 mM Sitagliptin phosphate were added to each collected blood, which was then subjected to centrifugation at 8000 rpm for 10 minutes to recover the plasma, and the plasma active GLP-1 level was measured by using the ELISA kit. In the analysis, the active GLP-1 level for a group administered with 0.5% CMC-Na aqueous solution was defined as 100, and relative values thereto were used.
In each Table, cyclic dipeptides for which an in vivo plasma active GLP-1 level-increasing action was found and was not found are listed.

| Compound | Plasma active GLP-1 level (relative value to control group as 100), Average value (Experiment 4) | Significant difference (p < 0.05) vs control group, plasma active GLP-1 level (Experiment 4) | Plasma active GLP-1 level (relative value to control group as 100), Average value (Experiment 3) | Significant difference (p < 0.05) vs control group, plasma active GLP-1 level (Experiment 3) | also measured |
| --- | --- | --- | --- | --- | --- |
| O=C1CNC(=O)C(Cc2ccccc2)N1 (stereo not shown) [compound 8] | 85 | No |  |  |  |
| CC(C)C1NC(=O)C(C(C)C)NC1=O (stereo not shown) [compound 11] | 100 | No |  |  |  |
| CCC(C)C1NC(=O)C(C(C)CC)NC1=O (stereo not shown) [compound 14] | 105 | No |  |  |  |
| CC(C)CC1NC(=O)C(CC(C)C)NC1=O (stereo not shown) [compound 15] | 95 | No |  |  |  |
| CC(C)CC1NC(=O)C(Cc2ccccc2)NC1=O (stereo not shown) [compound 16] | 105 | No |  |  |  |
| O=C1NC(Cc2ccccc2)C(=O)NC1Cc1ccccc1 (stereo not shown) [compound 17] |  |  | 203 | Yes |  |
| O=C1NC(Cc2c[nH]c3ccccc23)C(=O)NC1Cc1ccc(O)cc1 (stereo not shown) [compound 22] |  |  | 203 | Yes |  |
| O=C1NC(Cc2ccc(O)cc2)C(=O)NC1CO (stereo not shown) [compound 29] | 95 | No |  |  |  |
| O=C1NC(Cc2ccc(O)cc2)C(=O)N2CCCC12 (stereo not shown) [compound 30] | 95 | No |  |  |  |
| O=C(O)CC1NC(=O)C(Cc2ccccc2)NC1=O (stereo not shown) [compound 33] | 90 | No |  |  |  |
| O=C1NC(Cc2c[nH]cn2)C(=O)NC1Cc1ccccc1 (stereo not shown) [compound 38] |  |  | 264 | Yes |  |
| CC(C)CC1NC(=O)C(Cc2c[nH]c3ccccc23)NC1=O (stereo not shown) [compound 39] |  |  | 229 | Yes |  |
| CC(C)CC1NC(=O)C(C)NC1=O (stereo not shown) [compound 44] |  |  | 255 | Yes |  |
| O=C1NC(Cc2ccc(O)cc2)C(=O)NC1Cc1ccc(O)cc1 (stereo not shown) [compound 49] |  |  |  |  | Plasma active GLP-1 level (relative value to control group as 100), Average value (Experiment 5): 100; Significant difference (p < 0.05) vs control group, plasma active GLP-1 level (Experiment 5): No |
| CC(C)C1NC(=O)C(Cc2c[nH]c3ccccc23)NC1=O (stereo not shown) [compound 61] |  |  | 117 | No |  |
| CSCCC1NC(=O)C(CC(C)C)NC1=O (stereo not shown) [compound 72] |  |  |  |  | Plasma active GLP-1 level (relative value to control group as 100), Average value (Experiment 6): 90; Significant difference (p < 0.05) vs control group, plasma active GLP-1 level (Experiment 6): No |
| O=C1NC(Cc2c[nH]c3ccccc23)C(=O)NC1Cc1c[nH]c2ccccc12 (stereo not shown) [compound 75] |  |  | 229 | Yes |  |
| CC(O)C1NC(=O)C(Cc2c[nH]c3ccccc23)NC1=O (stereo not shown) [compound 79] |  |  |  |  | Plasma active GLP-1 level (relative value to control group as 100), Average value (Experiment 6): 100; Significant difference (p < 0.05) vs control group, plasma active GLP-1 level (Experiment 6): No |
| NC(=O)CCC1NC(=O)C(Cc2c[nH]c3ccccc23)NC1=O (stereo not shown) [compound 82] |  |  |  |  | Plasma active GLP-1 level (relative value to control group as 100), Average value (Experiment 6): 90; Significant difference (p < 0.05) vs control group, plasma active GLP-1 level (Experiment 6): No |
| O=C(O)CCC1NC(=O)C(Cc2ccc(O)cc2)NC1=O (stereo not shown) [compound 87] |  |  |  |  | Plasma active GLP-1 level (relative value to control group as 100), Average value (Experiment 7): 141; Significant difference (p < 0.05) vs control group, plasma active GLP-1 level (Experiment 7): No |
